Reference: US20090233795A1, “Fungicidal Mixtres Based On 3-Monosubstituted N-Bipenyl-Pyrazolecarboxamides” (BASF Akitengesellschaft, priority 2005, published 2009)
Like-named read-outs stand apart in the source and are kept apart here.

Tests used:
Puccinia recondita [1] = test: Curative activity against brown rust of wheat; format: in vivo; details: sprayed the day after inoculation, 7 days
Pyrenophora teres = test: Activity against net blotch of barley, 1 day protective application; format: in vivo, Pyrenophora [syn. Drechslera] teres; details: sprayed 24 hours before inoculation, rated after 6 days
Botrytis cinerea = test: Activity against gray mold on bell pepper leaves, 1 day protective application; format: in vivo; details: sprayed 1 day before inoculation, rated after 5 days
Septoria tritici = test: Activity against the speckled leaf blotch pathogen in the microtiter test; format: cell-based; details: microtiter plate, 405 nm, day 7
Pyricularia oryzae = format: cell-based; details: microtiter plate, 405 nm, day 7
[2] = tested on: Erysiphe [syn. Blumeria] graminis forma specialis. tritici; test: Activity against mildew of wheat; format: in vivo; details: 1 mg/l, sprayed 24 hours before inoculation, rated after 7 days
Puccinia recondita [3] = test: Protective activity against brown rust of wheat; format: in vivo; details: 16 mg/l, sprayed the day before inoculation

Cn1cc(C(=O)Nc2ccccc2-c2cccc(F)c2)c(C(F)F)n1 [No. I.14, N-(3′-fluorobiphenyl-2-yl)-1-methyl-3-difluoromethyl-1H-pyrazole-4-carboxamide]
melting point: 130 to 135 °C

Cn1cc(C(=O)Nc2ccccc2-c2cccc(C#N)c2)c(C(F)(F)F)n1 [No. I.5, 1-methyl-3-trifluoromethyl-N-(ortho-(3-cyanophenyl)phenyl)pyrazole-4-carboxamide]
melting point: 76 to 78 °C

COc1cc(C)c(C(=O)c2c(OC)ccc(Br)c2C)c(OC)c1OC [metrafenone, 3′-bromo-2,3,4,6′-tetramethoxy-2′,6-dimethylbenzophenone]
Observed activity (% infection) (Puccinia recondita [1]; 1 mg/l): 0%
Observed activity (% infection) (Pyrenophora teres; 16 mg/l): 0%

CC1CCN(c2c(-c3c(F)cc(F)cc3F)c(Cl)nc3ncnn23)CC1 [5-chloro-7-(4-methylpiperidin-1-yl)-6-(2,4,6-trifluorophenyl)-[1,2,4]triazolo[1,5-a]pyrimidine, reference compound]
Observed activity (% infection) (Botrytis cinerea; 4 mg/l): 40%
Observed activity (% infection) (Puccinia recondita [1]; 1 mg/l): 0%

zinc ammoniate ethylenebis(dithiocarbamate) [metiram, reference compound]
Observed activity (% infection) (Septoria tritici; 1 mg/l): 1%
Observed activity (% infection) (Pyricularia oryzae; 16 mg/l): 52%

Cn1cc(C(=O)Nc2ccccc2-c2cccc(Cl)c2)c(C(F)(F)F)n1 [No. I.1, N-(3′-chlorobiphenyl-2-yl)-1-methyl-3-trifluoromethyl-1H-pyrazole-4-carboxamide]
Observed activity (% infection) (Botrytis cinerea; 1 mg/l): 0%
Observed activity (% infection) [2]: 0%
Observed activity (% infection) (Pyrenophora teres; 4 mg/l): 26%
Observed activity (% infection) (Pyricularia oryzae; 4 mg/l): 0%
melting point: 92 to 94 °C

Cn1cc(C(=O)Nc2ccccc2-c2cccc(C(F)(F)F)c2)c(C(F)(F)F)n1 [No. I.4, N-(3′-trifluoromethylbiphenyl-2-yl)-1-methyl-3-trifluoromethyl-1H-pyrazole-4-carboxamide]
Observed activity (% infection) (Puccinia recondita [3]): 0%
Observed activity (% infection) (Septoria tritici; 0.25 mg/l): 20%
melting point: 132 to 134 °C

Cc1nn(C)cc1C(=O)Nc1ccccc1-c1cccc(Cl)c1 [No. I.10, N-(3′-chlorobiphenyl-2-yl)-1,3-dimethyl-1H-pyrazole-4-carboxamide]
melting point: 104 to 106 °C

Cc1nn(C)c(F)c1C(=O)Nc1ccccc1-c1cccc([N+](=O)[O-])c1 [No. I.16, N-(3′-nitrobiphenyl-2-yl)-1,3-dimethyl-5-fluoro-1H-pyrazole-4-carboxamide]
melting point: 137 to 139 °C

CC1(C)CC/C(=C\c2ccc(Cl)cc2)C1(O)Cn1cncn1 (stereo not shown) [triticonazole, (5E)-5-[(4-chlorophenyl)methylene]-2,2-dimethyl-1-(1H-1,2,4-triazol-1-ylmethyl)cyclopentanol, reference compound]
Observed activity (% infection) [2]: 40%

COc1ccc(C(=CC(=O)N2CCOCC2)c2ccc(Cl)cc2)cc1OC [dimethomorph, 3-(4-chlorophenyl)-3-(3,4-dimethoxyphenyl)-1-morpholin-4-yl-propenone]
Observed activity (% infection) (Puccinia recondita [1]; 1 mg/l): 0%
Observed activity (% infection) (Pyrenophora teres; 16 mg/l): 0%

Fc1ccc([C@]2(Cn3cncn3)O[C@H]2c2ccccc2Cl)cc1 (racemic) [epoxiconazole, (2RS,3SR)-1-[3-(2-chlorophenyl)-2,3-epoxy-2-(4-fluorophenyl)propyl]-1H-1,2,4-triazole]
Observed activity (% infection) (Pyrenophora teres; 1 mg/l): 0%

Cc1nn(C)c(F)c1C(=O)Nc1ccccc1-c1cccc(C(F)(F)F)c1 [No. I.17, N-(3′-trifluoromethylbiphenyl-2-yl)-1,3-dimethyl-5-fluoro-1H-pyrazole-4-carboxamide]
melting point: 113 to 114 °C

Cn1cc(C(=O)Nc2ccccc2-c2cccc(Cl)c2)c(C(F)F)n1 [No. I.12, N-(3′-chlorobiphenyl-2-yl)-1-methyl-3-difluoromethyl-1H-pyrazole-4-carboxamide]
melting point: 110 to 112 °C

Cn1cc(C(=O)Nc2ccccc2-c2cccc(F)c2)c(CF)n1 [No. I.13, N-(3′-fluorobiphenyl-2-yl)-1-methyl-3-fluoromethyl-1H-pyrazole-4-carboxamide]
melting point: 138 to 141 °C

COC(=O)N(OC)c1ccccc1COc1ccn(-c2ccc(Cl)cc2)n1 [pyraclostrobin, methyl N-{2-[1-(4-chlorophenyl)-1H-pyrazol-3-yloxymethyl]phenyl}(N-methoxy)carbamate, reference compound]
Observed activity (% infection) [2]: 40%

Cc1nn(C)c(F)c1C(=O)Nc1ccccc1-c1cccc(C#N)c1 [No. I.15, N-(3′-cyanobiphenyl-2-yl)-1,3-dimethyl-5-fluoro-1H-pyrazole-4-carboxamide]
melting point: 137 to 138 °C

Cn1cc(C(=O)Nc2ccccc2-c2cccc(C(F)(F)F)c2)c(C(F)F)n1 [No. I.9, N-(3′-trifluoromethylbiphenyl-2-yl)-1-methyl-3-difluoromethyl-1H-pyrazole-4-carboxamide]
Observed activity (% infection) [2]: 0%
Observed activity (% infection) (Puccinia recondita [1]; 0.25 mg/l): 11%
melting point: 124 to 125 °C

Cn1cc(C(=O)Nc2ccccc2-c2cccc(Cl)c2)c(CF)n1 [No. I.11, N-(3′-chlorobiphenyl-2-yl)-1-methyl-3-fluoromethyl-1H-pyrazole-4-carboxamide]
melting point: 96 to 99 °C
